Assay results reported in paper PMC10449621, “Engineering cellular communication between light-activated synthetic cells and bacteria” (Nature Chemical Biology, 2023).
Where “and” joins values, the source holds several entries; their conditions need not be identical. Identical values can stand only once. Entries after “also recorded” stand apart in the source; their conditions may differ.

Experiments:
[1] = system: BjaRS107R (B0034|CTG) receiver cells; assay: IV-HSL biosynthesis by BjaI in bulk CFPS reactions, quantified with receiver cells; assay type: cell-based, E. coli XL10-Gold; details: 10 nM
Description: We first validated bjaI expression using bulk CFPS reactions containing (^35S)-methionine to visualize the newly synthesized protein. The full-length BjaI protein (25 kDa) was successfully translated, and its expression was not influenced by the presence of SAM and IV-CoA (Fig. 4b). To establish whether the BjaI was enzymatically active, CFPS reactions containing 80 µM IV-CoA and 300 µM SAM were incubated at 37 °C for 5 h, and then serially diluted and incubated with BjaRS107R (B0034|CTG) receiver cells. Indeed, IV-HSL was successfully synthesized within the CFPS reactions as the reaction mixture containing the complete set of components (bjaI DNA + SAM + IV-CoA) fully activated gfp expression in the receivers, while no fluorescence output was observed from CFPS reactions containing SAM and IV-CoA, but without bjaI DNA template (Fig. 4c,d). […] Similarly, on transferring this system inside GUVs, BjaI-producing synthetic cells also synthesized sufficient IV-HSL to fully activate gfp expression in BjaRS107R (B0033|ATG) receiver cells. […] The loss in specific activity between CFPS performed in bulk compared to inside GUVs was attributed to the loss of inner solution during emulsion phase transfer and when the GUVs ruptured, less efficient CFPS in GUVs compared to in bulk, and absence of gene expression in some GUVs.
In total, 3 µl CFPS reactions were prepared using PURExpress with 0.8 U µl^−1 murine RNase inhibitor, 5 ng µl^−1 linear bjaI DNA template and 300 µM SAM and 80 µM IV-CoA, as indicated. Reactions were incubated for 5 h at 37 °C using a thermal cycler and then serially diluted in Milli-Q H2O. In total, 1 µl of the samples was added to lidded Corning 96-well plates containing 200 µl BjaI receiver cells (pSB1A3 BjaRS107R (CTG) at OD600 = 0.05). Cells were grown at 37 °C, 800 r.p.m. in a thermomixer with a heated lid for 4 h. OD600 and fluorescence were measured using a Tecan infinite M1000 plate reader (Ex, 488 nm; Em, 510 nm; bandwidth, 5 nm; z position, 23,179 µm and gain, 101).

[2] = system: BjaRKO receiver cells (pSB1A3–bjaRKO–gfp); assay: BjaR receiver cell AHSL dose-response (gfp reporter, plate reader); assay type: cell-based, E. coli XL10-Gold
Description: Next, we set out to establish a unidirectional communication pathway by reconstituting the BjaI and BjaR QS machinery, separately, within synthetic cells and E. coli, respectively. As a starting point, IV-HSL-responsive receiver cells were created by transforming E. coli XL10-Gold cells with a reporter plasmid, pSB1A3–bjaR–gfp[28]. This plasmid contained a bjaR gene under the control of a constitutively active J23100 promoter and a gfp gene under the control of a pBjaR promoter. The pBjaR promoter was formed by substituting the lux-box of the pLux promoter with the BjaR-binding site (Supplementary Fig. 10). […] Although this reporter plasmid had been characterized previously, gfp expression was initiated with C4-HSL rather than the cognate ligand, IV-HSL. Thus, we first evaluated the dose–response relationship between synthetic IV-HSL (synthesis described in Methods) and GFP production by BjaR receiver cells. The cells were grown in M9 minimal media to an optical density at 600 nm (OD600) = 0.05, then transferred to a 96-well plate containing IV-HSL and incubated at 37 °C, 800 r.p.m., for 4 h. […] To elucidate the root cause of the high background fluorescence, a BjaRKO variant of the reporter plasmid was constructed. […] Therefore, the high OFF-state was attributed to BjaR-mediated transcription activation in the absence of IV-HSL, rather than host transcription factors recognizing the pBjaR promoter, or transcription factor independent gfp expression.
The BjaR reporter plasmids were retransformed into E. coli XL10-Gold cells for each experiment. A single colony was used to inoculate 5 ml LB + Amp media and incubated at 37 °C, 225 r.p.m. overnight. Overnight cultures were diluted 1/250 or 1/500 in 5 ml M9 minimal media + Amp and incubated at 37 °C, 225 r.p.m. for 3 h and 45 min (until OD600 = ~0.075). Cultures were diluted down to OD600 = 0.05 with M9 minimal media + Amp, and 200 µl was added to wells of a 96-well plate containing 1 µl IV-HSL dissolved in DMSO or 1 µl BjaI CFPS reactions (IV-HSL concentrations obtained from serial dilution from 63.2 µM to 632 pM; final DMSO concentration = 0.5%). Cells were incubated at 37 °C, 800 r.p.m., in a thermomixer with a heated lid for 4 h. Fluorescence and OD600 were measured in a Tecan M1000 infinite plate reader (excitation, 488 nm; emission, 510 nm; bandwidth, 5 nm; gain, 101 and z position, 21,311 µm). The dose–response curves were fitted to the function indicated by Eq. (1), where a = maximal fluorescence output, b = basal fluorescence output, X = concentration of AHSL, GFP = fluorescence at the given condition, EC50 = AHSL at 50% maximal fluorescence output and h = hill coefficient. EC50 and h were derived using the nonlinear regression model based on Eq. (1), in MATLAB. A summary of the dose–response data is available in Supplementary Table 1.1 GFP=b+a−b/1+10^logEC50−X×h

`CC(C)CC(=O)N[C@H]1CCOC1=O` [IV-HSL, N-isovaleryl-L-homoserine lactone] was tested, and the GFP [1] was 45669 and 34133 and 41279, the Mean normalised fluorescence [1] was 170055 and the Normalised fluorescence [1] was 160035 and 169389 and 180741. The “gfp expression in presence of IV-HSL” value ([2]; BjaR knocked out) was “completely ablated gfp expression; also recorded: minimal gfp expression”, the GFP ([2]; Log([ASHL]) -6.5) was 184 and 176 and 173 and the Mean normalised fluorescence ([2]; Log([ASHL]) -6.5) was 361.621. The Normalised fluorescence ([2]; Log([ASHL]) -6.5) was 365.437 and 317.314 and 402.112, the GFP ([2]; Log([ASHL]) -7) was 173 and 168 and 165 and the Mean normalised fluorescence ([2]; Log([ASHL]) -7) was 321.731. The Normalised fluorescence ([2]; Log([ASHL]) -7) was 319.68 and 293.754 and 351.759, the GFP ([2]; Log([ASHL]) -7.5) was 177 and 169 and 166 and the Mean normalised fluorescence ([2]; Log([ASHL]) -7.5) was 323.42. For the same compound, the Normalised fluorescence ([2]; Log([ASHL]) -7.5) was 331.126 and 287.856 and 351.279, the GFP ([2]; Log([ASHL]) -8) was 168 and 166 and 175 and the Mean normalised fluorescence ([2]; Log([ASHL]) -8) was 329.861. The Normalised fluorescence ([2]; Log([ASHL]) -8) was 292.758 and 367.412 and 329.412, the GFP ([2]; Log([ASHL]) -8.5) was 168 and 165 and 177 and the Mean normalised fluorescence ([2]; Log([ASHL]) -8.5) was 326.491. For the same compound, the Normalised fluorescence ([2]; Log([ASHL]) -8.5) was 291.054 and 362.261 and 326.158, the GFP ([2]; Log([ASHL]) -9) was 165 and 164 and 177 and the Mean normalised fluorescence ([2]; Log([ASHL]) -9) was 335.395. The Normalised fluorescence ([2]; Log([ASHL]) -9) was 295.725 and 362.027 and 348.432, the GFP ([2]; Log([ASHL]) -9.5) was 164 and 162 and 172 and the Mean normalised fluorescence ([2]; Log([ASHL]) -9.5) was 325.095. The Normalised fluorescence ([2]; Log([ASHL]) -9.5) was 293.548 and 346.048 and 335.689, the GFP ([2]; Log([ASHL]) -10) was 163 and 162 and 171 and the Mean normalised fluorescence ([2]; Log([ASHL]) -10) was 332.521. For the same compound, the Normalised fluorescence ([2]; Log([ASHL]) -10) was 290.698 and 371.151 and 335.714, the GFP ([2]; Log([ASHL]) -10.5) was 166 and 164 and 173 and the Mean normalised fluorescence ([2]; Log([ASHL]) -10.5) was 338.795. For the same compound, the Normalised fluorescence ([2]; Log([ASHL]) -10.5) was 301.85 and 369.458 and 345.075, the GFP ([2]; Log([ASHL]) -11) was 163 and 161 and 171 and the Mean normalised fluorescence ([2]; Log([ASHL]) -11) was 330.063. For the same compound, the Normalised fluorescence ([2]; Log([ASHL]) -11) was 296.053 and 361.746 and 332.39, the GFP ([2]; Log([ASHL]) -11.5) was 165 and 174 and 162 and the Mean normalised fluorescence ([2]; Log([ASHL]) -11.5) was 344.578. The Normalised fluorescence ([2]; Log([ASHL]) -11.5) was 307.076 and 352.984 and 373.673.
